Results on 27 molecules are retold here after patent publication US8889670B2, “Heterocyclic compounds which modulate the CB2 receptor” (Boehringer Ingelheim International GmbH, priority 2009, dated 2014).

Structures are written as SMILES.

T1 sequence (P34972 whole entry): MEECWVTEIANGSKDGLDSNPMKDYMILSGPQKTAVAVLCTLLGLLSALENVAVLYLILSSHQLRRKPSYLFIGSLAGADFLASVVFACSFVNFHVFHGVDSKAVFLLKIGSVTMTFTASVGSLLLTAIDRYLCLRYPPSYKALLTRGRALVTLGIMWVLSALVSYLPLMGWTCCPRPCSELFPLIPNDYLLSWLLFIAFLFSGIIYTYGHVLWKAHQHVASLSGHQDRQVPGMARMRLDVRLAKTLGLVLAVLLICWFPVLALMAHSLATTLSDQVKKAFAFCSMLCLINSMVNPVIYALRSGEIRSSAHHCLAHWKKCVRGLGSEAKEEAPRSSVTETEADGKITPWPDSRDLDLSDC

One test concerns the target T1, human CB2R (Homo sapiens, UniProt P34972).
T1 construct: host or cells: CHO cells
As to the kind of experiment: CB2R mediated modulation of cAMP synthesis (forskolin-stimulated cAMP, CHO cells expressing human CB2R).
Settings: not given
It is filed as cell-based. As for the experimental part:
B. CB2R Mediated Modulation of cAMP Synthesis:
Compounds of the invention were evaluated for their CB2 agonist or inverse agonistic activity in accordance with the following experimental method.
CHO cells expressing human CB2R (Euroscreen) were plated at a density of 5000 cells per well in 384 well plates and incubated overnight at 37° C. After removing the media, the cells were treated with test compounds diluted in stimulation buffer containing 1 mM IBMX, 0.25% BSA and 10 uM Forskolin. The assay was incubated for 30 minutes at 37° C. Cells were lysed and the cAMP concentration was measured using DiscoverX-XS cAMP kit, following the manufacturer's protocol. In this setting, agonists will decrease forskolin induced production of cAMP while inverse agonists will further increase forskolin induced production of cAMP. EC50 of agonists were calculated as follows. The maximal amount of cAMP produced by forskolin compared to the level of cAMP inhibited by 1 uM CP55940 is defined as 100%. […] Data was analyzed using a four-parameter logistic model. (Model 205 of XLfit 4.0).
By EC50 is commonly meant the midpoint of the concentration-response curve. `O=C(Nc1nc(-c2ccc(F)cc2)cs1)[C@@H]1CCCCN1C(=O)N1CCS(=O)(=O)CC1` [(S)-1-(1,1-Dioxo-1λ^6-thiomorpholine-4-carbonyl)-piperidine-2-carboxylic acid [4-(4-fluoro-phenyl)-thiazol-2-yl]-amide] displayed a half-maximal effective concentration (EC50) of 38 nM.
`CC(C)(C)c1cc(NC(=O)[C@@H]2CCCCN2C(=O)C2CCS(=O)(=O)C2)no1` (stereo partly drawn) [(S)-1-(1,1-Dioxo-tetrahydro-1λ^6-thiophene-3-carbonyl)-piperidine-2-carboxylic acid (5-tert-butyl-isoxazol-3-yl)-amide]: the 50% effective concentration (EC50) is 17 nM.
Still for that read-out and setting: in the case of `CC(C)(C)c1cc(NC(=O)[C@@H]2CCCCN2C(=O)C(F)(F)F)no1` [(S)-1-(2,2,2-Trifluoro-acetyl)-piperidine-2-carboxylic acid (5-tert-butyl-isoxazol-3-yl)-amide] it was 48 nM.
`CC(C)(C)c1cc(NC(=O)[C@@H]2CCCCN2Cc2ccc(F)c(F)c2)no1` [(S)-1-(3,4-Difluoro-benzyl)-piperidine-2-carboxylic acid (5-tert-butyl-isoxazol-3-yl)-amide] gave an EC50 of 0.58 nM.
`CC(C)(C)c1cc(NC(=O)[C@@H]2CCCCN2C(=O)c2cccc(Cl)c2)no1` [(S)-1-(3-Chloro-benzoyl)-piperidine-2-carboxylic acid (5-tert-butyl-isoxazol-3-yl)-amide] came in with an EC50 of 44 nM.
`CC(C)(C)c1cc(NC(=O)[C@@H]2CCCCN2C(=O)C2CCC(F)(F)CC2)on1` [(S)-1-(4,4-Difluoro-cyclohexanecarbonyl)-piperidine-2-carboxylic acid (3-tert-butyl-isoxazol-5-yl)-amide] came in with an EC50 of 1 nM.
Molecule `CC(C)(C)c1cc(NC(=O)[C@@H]2CCCCN2C(=O)C2CCC(F)(F)CC2)no1` [(S)-1-(4,4-Difluoro-cyclohexanecarbonyl)-piperidine-2-carboxylic acid (5-tert-butyl-isoxazol-3-yl)-amide] gave a 50% effective concentration (EC50) of 4.6 nM.
Same read-out and setting: in the case of `CC(C)(C)c1cc(NC(=O)[C@H]2CCCN(C(=O)C3CCC(F)(F)CC3)C2)no1` [(S)-1-(4,4-Difluoro-cyclohexanecarbonyl)-piperidine-3-carboxylic acid (5-tert-butyl-isoxazol-3-yl)-amide] it was 119 nM; in that of `CC(C)(C)c1cc(NC(=O)[C@@H]2CCCCN2C(=O)N2CCC(F)(F)CC2)no1` [(S)-1-(4,4-Difluoro-piperidine-1-carbonyl)-piperidine-2-carboxylic acid (5-tert-butyl-isoxazol-3-yl)-amide], 3.7 nM.
On the same count and under the same terms, next, `CC(C)(C)c1cc(NC(=O)[C@@H]2CCCCN2S(=O)(=O)c2ccc(Cl)cc2)no1` [(S)-1-(4-Chloro-benzenesulfonyl)-piperidine-2-carboxylic acid (5-tert-butyl-isoxazol-3-yl)-amide]: 21 nM.
Same read-out and setting: in the case of `CC(C)(C)c1cc(NC(=O)[C@@H]2CCCCCN2c2ccc(Cl)cc2)no1` [(S)-1-(4-Chloro-phenyl)-azepane-2-carboxylic acid (5-tert-butyl-isoxazol-3-yl)-amide] it was 0.4 nM; in that of `CC(C)(C)c1cc(NC(=O)[C@@H]2CCCCN2C(=O)c2ccc(F)cc2)no1` [(S)-1-(4-Fluoro-benzoyl)-piperidine-2-carboxylic acid (5-tert-butyl-isoxazol-3-yl)-amide], 2.2 nM; in that of `COc1ccc(S(=O)(=O)N2CCCC[C@H]2C(=O)Nc2cc(C(C)(C)C)on2)cc1` [(S)-1-(4-Methoxy-benzenesulfonyl)-piperidine-2-carboxylic acid (5-tert-butyl-isoxazol-3-yl)-amide], 27 nM.
`CC(C)(C)c1cc(NC(=O)[C@@H]2CCCCN2C(=O)C[C@H]2CCCO2)no1` [(S)-1-((R)-2-Tetrahydro-furan-2-yl-acetyl)-piperidine-2-carboxylic acid (5-tert-butyl-isoxazol-3-yl)-amide]: the midpoint of the response, the EC50, lay at 94 nM.
The molecule `CC(C)(C)c1cc(NC(=O)[C@@H]2CCCCCN2C2CCOCC2)no1` [(S)-1-(Tetrahydro-pyran-4-yl)-azepane-2-carboxylic acid (5-tert-butyl-isoxazol-3-yl)-amide] gave an EC50 of 0.18 nM.
Same read-out and setting: in the case of `CC(C)(C)c1cc(NC(=O)[C@@H]2CCCCCN2CC2CCOCC2)no1` [(S)-1-(Tetrahydro-pyran-4-ylmethyl)-azepane-2-carboxylic acid (5-tert-butyl-isoxazol-3-yl)-amide] it was 0.03 nM.

The same test, now with this note: agonist EC50, inhibition of forskolin-stimulated cAMP synthesis; CHO cells expressing human CB2R; mean; read-out: CB2 CAMP @ EC50 nM (mean).
For `COCC(C)(C)c1cc(NC(=O)[C@@H]2CCCCN2C(=O)N2CCS(=O)(=O)CC2)no1` [(S)-1-(1,1-Dioxo-1λ^6-thiomorpholine-4-carbonyl)-piperidine-2-carboxylic acid [5-(2-methoxy-1,1-dimethyl-ethyl)-isoxazol-3-yl]-amide], the EC50 was 162 nM.
As to `CC(C)(C)c1cc(NC(=O)[C@@H]2CCCCN2C(=O)CN2CCOCC2)no1` [(S)-1-(2-Morpholin-4-yl-acetyl)-piperidine-2-carboxylic acid (5-tert-butyl-isoxazol-3-yl)-amide], the EC50 came out at 188 nM.
Turning to `CC(C)(C)c1cc(NC(=O)[C@@H]2CCCCN2C(=O)CN2CCCC2)no1` [(S)-1-(2-Pyrrolidin-1-yl-acetyl)-piperidine-2-carboxylic acid (5-tert-butyl-isoxazol-3-yl)-amide], the EC50 was 431 nM.
Still for that read-out and setting: next, `O=C(Nc1ccc(C(F)(F)F)cn1)[C@@H]1CCCCN1C(=O)C1CCC(F)(F)CC1` [(S)-1-(4,4-Difluoro-cyclohexanecarbonyl)-piperidine-2-carboxylic acid (5-trifluoromethyl-pyridin-2-yl)-amide]: 282 nM; `CC(C)(C)c1cc(NC(=O)[C@@H]2CCCC(=O)N2c2ccc(Cl)cc2)on1` [(S)-1-(4-Chloro-phenyl)-6-oxo-piperidine-2-carboxylic acid (3-tert-butyl-isoxazol-5-yl)-amide]: 181 nM; `O=C(Nc1nc(C2CCCCC2)cs1)[C@@H]1CCCCN1C1CCOCC1` [(S)-1-(Tetrahydro-pyran-4-yl)-piperidine-2-carboxylic acid (4-cyclohexyl-thiazol-2-yl)-amide]: 65 nM.
The same measure, in the same setting: in the case of `O=C(Nc1nc2cc(Cl)ccc2s1)[C@@H]1CCCCN1C1CCOCC1` [(S)-1-(Tetrahydro-pyran-4-yl)-piperidine-2-carboxylic acid (5-chloro-benzothiazol-2-yl)-amide] it was 206 nM.
For `CCn1nc(NC(=O)[C@@H]2CCCCN2CC2CCOCC2)nc1-c1ccccc1` [(S)-1-(Tetrahydro-pyran-4-ylmethyl)-piperidine-2-carboxylic acid (1-ethyl-5-phenyl-1H-1,2,4-triazol-3-yl)-amide], the EC50 was found to be 8.6 nM.
With `O=C(Nc1ccc(C(F)(F)F)c(F)c1)[C@@H]1CCCCN1CC1CCOCC1` [(S)-1-(Tetrahydro-pyran-4-ylmethyl)-piperidine-2-carboxylic acid (3-fluoro-4-trifluoromethyl-phenyl)-amide], the EC50 worked out at 1.8 nM.
Regarding `CC(C)c1nsc(NC(=O)[C@@H]2CCCCN2CC2CCOCC2)n1` [(S)-1-(Tetrahydro-pyran-4-ylmethyl)-piperidine-2-carboxylic acid (3-isopropyl-1,2,4-thiadiazol-5-yl)-amide], the concentration for a half-maximal effect (EC50) amounted to 208 nM.
On to `O=C(Nc1nc(-c2ccccc2)ns1)[C@@H]1CCCCN1CC1CCOCC1` [(S)-1-(Tetrahydro-pyran-4-ylmethyl)-piperidine-2-carboxylic acid (3-phenyl-1,2,4-thiadiazol-5-yl)-amide], for which the EC50 came to 1.2 nM.
